Reference: US20090149458A1, “PYRROLO[3,2-d]PYRIMIDINE COMPOUNDS AND THEIR USE AS PI3 KINASE AND mTOR KINASE INHIBITORS” (Wyeth, priority 2007, published 2009)

Assays:
human TOR = molecular target: T1, human TOR (Homo sapiens, UniProt P42345); assay: human TOR kinase assay with purified enzyme, DELFIA format; type: biochemical; conditions: FLAG-TOR, 100 μM ATP, His6-S6K substrate;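 note: 2 h kinase reaction at room temperature, phosphorylation of S6K at T389 detected with a europium-labelled antibody after plate capture, DMSO vehicle as control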
T1 construct: FLAG

PI3 Kinase γ = PI3 Kinase γ (Homo sapiens, UniProt P48736); assay: PI3K fluorescence polarization assay (PI3 Kinase γ); type: biochemical; conditions: 20 uM PIP2, 25 uM ATP
Chain of PI3 Kinase γ (P48736 whole entry): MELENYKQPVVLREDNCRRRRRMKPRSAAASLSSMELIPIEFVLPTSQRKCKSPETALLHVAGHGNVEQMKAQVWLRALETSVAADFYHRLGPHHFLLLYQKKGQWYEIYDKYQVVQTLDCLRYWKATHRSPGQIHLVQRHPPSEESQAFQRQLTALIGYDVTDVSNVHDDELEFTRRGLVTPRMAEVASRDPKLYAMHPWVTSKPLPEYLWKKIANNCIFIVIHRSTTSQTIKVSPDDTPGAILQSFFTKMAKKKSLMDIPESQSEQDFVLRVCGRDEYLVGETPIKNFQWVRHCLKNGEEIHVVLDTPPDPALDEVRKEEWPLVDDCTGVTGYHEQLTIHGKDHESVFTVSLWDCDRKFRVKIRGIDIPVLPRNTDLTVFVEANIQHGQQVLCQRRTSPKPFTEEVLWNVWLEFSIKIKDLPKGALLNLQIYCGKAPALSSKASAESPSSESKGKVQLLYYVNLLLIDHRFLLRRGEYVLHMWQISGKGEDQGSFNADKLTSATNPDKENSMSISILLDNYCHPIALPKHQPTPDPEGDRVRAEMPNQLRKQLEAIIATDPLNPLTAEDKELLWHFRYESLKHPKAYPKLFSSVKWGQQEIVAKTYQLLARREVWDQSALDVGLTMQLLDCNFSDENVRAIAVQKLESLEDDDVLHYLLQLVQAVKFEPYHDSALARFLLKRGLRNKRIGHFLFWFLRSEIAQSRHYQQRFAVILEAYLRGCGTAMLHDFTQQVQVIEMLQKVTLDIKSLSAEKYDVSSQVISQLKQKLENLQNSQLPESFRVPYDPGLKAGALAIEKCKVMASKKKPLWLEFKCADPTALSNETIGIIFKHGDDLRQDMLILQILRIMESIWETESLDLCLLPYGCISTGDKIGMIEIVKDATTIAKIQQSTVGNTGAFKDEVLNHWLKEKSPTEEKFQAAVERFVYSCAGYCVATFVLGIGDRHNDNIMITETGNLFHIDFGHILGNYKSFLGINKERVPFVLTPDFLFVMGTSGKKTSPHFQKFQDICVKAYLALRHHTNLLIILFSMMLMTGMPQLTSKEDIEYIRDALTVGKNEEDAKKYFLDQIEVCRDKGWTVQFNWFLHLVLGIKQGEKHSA
Description: Buffers: Reaction Buffer: 20 mM HEPES pH7.5, 2 mM MgCl2, 0.05% CHAPS, and 0.01% bME (added fresh); STOP/detection Buffer: 100 mM HEPES pH7.5, 4 mM EDTA, 0.05% CHAPS. STOCKS: ATP 20 mM in H2O; PIP2 (diC8, Echelon cat# P-4508) 1 mM in H2O MW=856.5; GST-murine GRP 1.5 mg/ml in 17% glycerol; Red detector probe-Echelon (TAMRA) 2.5 uM. Plate: Nunc 384 well black polypropylene fluor. Plate.
Assay: The assay is run by putting 9.5 ul of freshly diluted enzyme (in “reaction buffer”) per well, then 0.5 ul of diluted drug or DMSO mixing. Then 10 ul of substrate is added to start the reaction. The mixture is incubated 30-60 minutes, room temp, then stopped with 20 ul of stop/detector mix. The substrate solution, is 40 μM PIP2 and 50 uM ATP in reaction buffer. Addition of 10 ul of substrate to each well starts the reaction. This is 20 uM PIP2, 25 uM ATP final in reaction.
Stop/detector mix: 10 nM TAMRA detector, 40 nM GST-GRP in STOP/detection buffer. To stop reaction: add 20 ul Stop/detector mix per well and mix well. Wait 90-110 minutes before reading plate. Plates are read on Perkin-Elmer Envision plate readers with filters for Tamra. Keep Red probe solutions dark. This procedure is adapted from Echelon Biosciences Inc procedure for their PI3-Kinase fluorescence polarization activity Assay kit Product number K-1100.

PI3 Kinase α = PI3 Kinase α (Homo sapiens, UniProt P42336); assay: PI3K fluorescence polarization assay (PI3 Kinase α); type: biochemical; conditions: 20 uM PIP2, 25 uM ATP;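 note: enzyme reaction with inhibitor or DMSO control, 30–60 min at room temperature, stopped by EDTA, then TAMRA detector with GST-GRP fluorescence polarization read after 90–110 min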
Chain of PI3 Kinase α (P42336 whole entry): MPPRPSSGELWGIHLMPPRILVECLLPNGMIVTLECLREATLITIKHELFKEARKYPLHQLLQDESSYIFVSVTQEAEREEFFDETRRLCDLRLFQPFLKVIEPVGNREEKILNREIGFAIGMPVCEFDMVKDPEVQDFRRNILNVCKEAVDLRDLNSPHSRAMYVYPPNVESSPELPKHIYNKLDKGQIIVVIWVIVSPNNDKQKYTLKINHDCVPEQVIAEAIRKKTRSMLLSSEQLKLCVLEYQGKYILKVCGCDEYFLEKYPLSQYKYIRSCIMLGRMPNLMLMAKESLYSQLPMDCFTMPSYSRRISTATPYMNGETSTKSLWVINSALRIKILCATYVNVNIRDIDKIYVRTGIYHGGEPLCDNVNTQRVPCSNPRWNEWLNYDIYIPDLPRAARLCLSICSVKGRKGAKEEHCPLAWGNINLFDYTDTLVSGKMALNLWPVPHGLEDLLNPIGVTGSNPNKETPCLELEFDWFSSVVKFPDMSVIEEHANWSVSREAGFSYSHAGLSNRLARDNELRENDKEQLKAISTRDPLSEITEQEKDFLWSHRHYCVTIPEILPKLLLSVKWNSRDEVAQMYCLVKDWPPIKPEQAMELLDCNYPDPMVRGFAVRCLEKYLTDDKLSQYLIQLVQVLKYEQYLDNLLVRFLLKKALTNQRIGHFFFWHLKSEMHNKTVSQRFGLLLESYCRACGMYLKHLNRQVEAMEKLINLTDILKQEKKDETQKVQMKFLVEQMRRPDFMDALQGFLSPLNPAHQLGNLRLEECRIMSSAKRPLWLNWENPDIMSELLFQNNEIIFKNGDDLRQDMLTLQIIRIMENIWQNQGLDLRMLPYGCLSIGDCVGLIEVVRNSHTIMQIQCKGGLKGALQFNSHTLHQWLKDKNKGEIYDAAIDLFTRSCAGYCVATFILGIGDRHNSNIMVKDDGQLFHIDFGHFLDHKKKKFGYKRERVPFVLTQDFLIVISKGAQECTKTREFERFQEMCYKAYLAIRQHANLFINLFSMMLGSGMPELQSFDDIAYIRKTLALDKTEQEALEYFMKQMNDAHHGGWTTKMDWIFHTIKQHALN
Chain of PI3 Kinase α (P27986 whole entry partner): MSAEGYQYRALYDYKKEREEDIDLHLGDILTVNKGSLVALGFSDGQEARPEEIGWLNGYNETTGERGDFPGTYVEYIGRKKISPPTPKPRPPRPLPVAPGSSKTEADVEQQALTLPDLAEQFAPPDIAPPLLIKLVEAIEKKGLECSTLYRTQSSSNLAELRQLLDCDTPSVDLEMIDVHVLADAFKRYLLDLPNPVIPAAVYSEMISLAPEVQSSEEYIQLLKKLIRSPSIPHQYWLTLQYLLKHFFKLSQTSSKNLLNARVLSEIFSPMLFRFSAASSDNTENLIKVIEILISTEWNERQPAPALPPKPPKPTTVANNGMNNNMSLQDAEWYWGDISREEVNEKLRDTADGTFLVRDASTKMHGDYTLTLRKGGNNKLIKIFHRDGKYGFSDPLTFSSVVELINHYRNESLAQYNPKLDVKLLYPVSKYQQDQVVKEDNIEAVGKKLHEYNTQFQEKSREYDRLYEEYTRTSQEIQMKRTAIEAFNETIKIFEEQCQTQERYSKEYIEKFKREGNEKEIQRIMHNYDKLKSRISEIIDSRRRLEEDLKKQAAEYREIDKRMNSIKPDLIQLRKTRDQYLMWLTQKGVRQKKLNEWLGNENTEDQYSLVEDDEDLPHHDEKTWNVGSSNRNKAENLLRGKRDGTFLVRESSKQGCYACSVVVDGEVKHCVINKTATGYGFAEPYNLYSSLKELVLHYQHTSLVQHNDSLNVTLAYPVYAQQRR

[1] = tested on: acute lymphoblastic leukemia xenograft; conditions: NOS/SCID xenograft mouse model of acute lymphoblastic leukemia; Teachey et al, Blood 2006; cited from earlier work

| SMILES | IC50 (human TOR) [nM] | IC50 (PI3 Kinase γ) [nM] | IC50 (PI3 Kinase α) [nM] | activity in xenograft model [1] |
| --- | --- | --- | --- | --- |
| Oc1cccc(-c2nc(N3CCOCC3)c3[nH]cc(C4CCN(C5CCCCC5)CC4)c3n2)c1 [Example 31, 3-[7-(1-cyclohexylpiperidin-4-yl)-4-morpholin-4-yl-5H-pyrrolo[3,2-d]pyrimidin-2-yl]phenol] | 370 | 2490 | 250 | – |
| CN(C)CCNC(=O)Nc1cccc(-c2nc(N3CCOCC3)c3[nH]ccc3n2)c1 [Example 40, 1-[2-(dimethylamino)ethyl]-3-[3-(4-morpholin-4-yl-5H-pyrrolo[3,2-d]pyrimidin-2-yl)phenyl]urea] | > 4000 | 9500 | 4680 | – |
| O=C(NCCCO)Nc1cccc(-c2nc(N3CCOCC3)c3[nH]ccc3n2)c1 [Example 41, 1-(3-hydroxypropyl)-3-[3-(4-morpholin-4-yl-5H-pyrrolo[3,2-d]pyrimidin-2-yl)phenyl]urea] | > 4000 | > 10000 | 6220 | – |
| O=C(NCCCn1ccnc1)Nc1cccc(-c2nc(N3CCOCC3)c3[nH]ccc3n2)c1 [Example 42, 1-[3-(1H-imidazol-1-yl)propyl]-3-[3-(4-morpholin-4-yl-5H-pyrrolo[3,2-d]pyrimidin-2-yl)phenyl]urea] | > 4000 | > 10000 | 8940 | – |
| O=C(NCc1ccco1)Nc1cccc(-c2nc(N3CCOCC3)c3[nH]ccc3n2)c1 [Example 43, 1-(2-furylmethyl)-3-[3-(4-morpholin-4-yl-5H-pyrrolo[3,2-d]pyrimidin-2-yl)phenyl]urea] | > 4000 | > 10000 | > 10000 | – |
| O=C(NCc1cccnc1)Nc1cccc(-c2nc(N3CCOCC3)c3[nH]ccc3n2)c1 [Example 44, 1-[3-(4-morpholin-4-yl-5H-pyrrolo[3,2-d]pyrimidin-2-yl)phenyl]-3-(pyridin-3-ylmethyl)urea] | > 4000 | > 10000 | > 10000 | – |
| COC(=O)Cn1ccc2nc(-c3cccc(CO)c3)nc(N3CCOCC3)c21 [Example 46, Methyl {2-[3-(hydroxymethyl)phenyl]-4-morpholin-4-yl-5H-pyrrolo[3,2-d]pyrimidin-5-yl}acetate] | > 4000 | 2680 | 2400 | – |
| O=C1COCCN1c1nc(-c2cccc(O)c2)nc2cc[nH]c12 [Example 48, 4-[2-(3-hydroxyphenyl)-5H-pyrrolo[3,2-d]pyrimidin-4-yl]morpholin-3-one] | 505 | 2000 | 1180 | – |
| CO[C@H]1C[C@@H]2CC[C@@H](C)[C@@](O)(O2)C(=O)C(=O)N2CCCC[C@H]2C(=O)O[C@H]([C@H](C)C[C@@H]2CC[C@@H](OC(=O)C(C)(CO)CO)[C@H](OC)C2)CC(=O)[C@H](C)/C=C(\C)[C@@H](O)[C@@H](OC)C(=O)[C@H](C)C[C@H](C)/C=C/C=C/C=C/1C [Torisel] | – | – | – | active |

Continued, in another order:

| IC50 (human TOR) [nM] | IC50 (PI3 Kinase γ) [nM] | IC50 (PI3 Kinase α) [nM] | SMILES | activity in xenograft model [1] |
| --- | --- | --- | --- | --- |
| 330 | 1920 | 166 | Oc1cccc(-c2nc(N3CCOCC3)c3[nH]cc(C4CCN(Cc5ccccc5F)CC4)c3n2)c1 [Example 32, 3-{7-[1-(2-fluorobenzyl)piperidin-4-yl]-4-morpholin-4-yl-5H-pyrrolo[3,2-d]pyrimidin-2-yl}phenol] | – |
| 960 | 792 | 111 | Oc1cccc(-c2nc(N3CCOCC3)c3[nH]cc(C4CCN(Cc5ccc[nH]5)CC4)c3n2)c1 [Example 33, 3-{4-morpholin-4-yl-7-[1-(1H-pyrrol-2-ylmethyl)piperidin-4-yl]-5H-pyrrolo[3,2-d]pyrimidin-2-yl}phenol] | – |
| 460 | 1370 | 120 | Oc1cccc(-c2nc(N3CCOCC3)c3[nH]cc(C4CCN(Cc5ccc(F)cc5Cl)CC4)c3n2)c1 [Example 34, 3-{7-[1-(2-chloro-4-fluorobenzyl)piperidin-4-yl]-4-morpholin-4-yl-5H-pyrrolo[3,2-d]pyrimidin-2-yl}phenol] | – |
| 580 | 1730 | 222 | CC(C)(C)OC(=O)NCCN1CCC(c2c[nH]c3c(N4CCOCC4)nc(-c4cccc(O)c4)nc23)CC1 [Example 36, tert-Butyl (2-{4-[2-(3-hydroxyphenyl)-4-morpholin-4-yl-5H-pyrrolo[3,2-d]pyrimidin-7-yl]piperidin-1-yl}ethyl)carbamate] | – |
| 605 | 611 | 140 | Oc1cccc(-c2nc(N3CCOCC3)c3[nH]cc(C4CCN(Cc5ccccn5)CC4)c3n2)c1 [Example 38, 3-{4-morpholin-4-yl-7-[1-(pyridin-2-ylmethyl)piperidin-4-yl]-5H-pyrrolo[3,2-d]pyrimidin-2-yl}phenol] | – |
| 1260 | 132 | 69 | Oc1cccc(-c2nc(N3CCOCC3)c3[nH]cc(C4CCN(Cc5ccc(F)nc5)CC4)c3n2)c1 [Example 39, 3-(7-{1-[(6-fluoropyridin-3-yl)methyl]piperidin-4-yl}-4-morpholin-4-yl-5H-pyrrolo[3,2-d]pyrimidin-2-yl)phenol] | – |
